Here are results for 2 compounds from patent US10987372B2, “Anti-hepatoma-virus agent” (KAGOSHIMA UNIVERSITY, priority 2016, dated 2021).

Series [1] relates to HBV. Description: Determination of anti-HBV activity: HBV DNA by quantitative PCR in HepG2.2.15 cells. Type of series: cell-based. The following applies: for anti-HBV activity (intracellular HBV DNA amount): 1 μM, culture for 7 days, quantitative PCR (FIG. 3). The method, then:
FIG. 3 is a graph showing anti-HBV activity levels of purine antimetabolites. HepG2.2.15 cells were seeded at a concentration of 1×10^5 cells/well. Then, 24 hours later, purine antimetabolites (clofarabine, cladribine, and fludarabine) and entecavir (ETV) were each diluted to result in a final concentration of 1 μM and each dilution was added to cells. After culture for 7 days, the cytoplasmic fraction was collected and DNA was purified by phenol-chloroform extraction. The intracellular HBV DNA amount was evaluated by quantitative PCR using 20 ng of purified DNA.
FIG. 5 is a graph showing anti-HBV activity of clofarabine. HepG2.2.15 cells were seeded at a concentration of 1×10^5 cells/well. Then, 24 hour later, clofarabine was diluted to result in concentrations of 0, 0.97, 1.95, 3.90, 7.81, 15.6, 31.3, 62.5, 125, 250, 500, and 1000 nM and each dilution was added to cells. After culture for 7 days, the cytoplasmic fraction was collected and DNA was purified by phenol-chloroform extraction. The intracellular HBV DNA amount was evaluated by quantitative PCR using 20 ng of purified DNA.
Anti-HBV activity was evaluated by quantitative PCR for determining the amount of HBV DNA in cells or HBV DNA in the culture supernatant on day 7 after the addition of the agent using the HepG2.2.15 cell line of HBV-producing cells obtained by introducing a gene having a length twice that of the HBV genome into the human liver cancer cell line HepG2. For PCR of HBV DNA, a forward primer (HBV-S190F; 5′-GCT CGT GTT ACA GGC GGG-3′: SEQ ID NO: 1) and a reverse primer (HBV-S703R; 5′-GAACCACTGAACAAATGGCACTAGTA-3′: SEQ ID NO: 2) were used. PCR was performed by carrying out a reaction at 95° C. for 10 sec, 62° C. for 10 sec, and 72° C. for 30 sec for 35 cycles.
For screening of the anti-HBV agent, the HepG2.2.15 line obtained by introducing the HBV gene into HepG2 cells of a human cancer cell line was used (Production of hepatitis B virus particles in HepG2 cells transfected with cloned hepatitis B virus DNA. Sells M A, Chen M L, and Acs G., Proc. Natl. Acad. Sci. USA 84: 1005-1009 (1987)). […]

Series [2] deals with HCV. Description: Evaluation of anti-HCV activity: Renilla luciferase HCV RNA replication reporter in OR6 cells. The following applies: 1 μM, culture for 3 days (FIG. 4). Type of series: cell-based. As for the experimental part: FIG. 4 is a graph showing anti-HCV activity levels of purine antimetabolites. OR6 cells were seeded at a concentration of 1.5×10^4 cells/well. Then, 24 hours later, purine antimetabolites were each diluted to result in a final concentration of 1 μM and each dilution was added to cells. After culture for 3 days, cells were collected to determine Renilla luciferase activity.
FIG. 7 is a graph showing anti-HCV activity of clofarabine. OR6 cells were seeded at a concentration of 1.5×10^4 cells/well. Then, 24 hour later, clofarabine was diluted to result in concentrations of 0, 15.6, 31.3, 62.5, 125, 250, 500, and 1000 nM and each dilution was added to cells. After culture for 3 days, cells were collected to determine Renilla luciferase activity.
Anti-HCV activity was evaluated using OR6 cells from the human liver cancer cell line HuH-7 and ORL8 cells from the human liver cancer cell line Li23. Since the Renilla Luciferase gene has been incorporated into the genome of the genotype-1b O strain in OR6 cells and ORL8 cells, it is possible to conveniently and accurately evaluate the level of HCV RNA replication by determining the Renilla Luciferase activity. Each agent was added to OR6 cells or ORL8 cells, the cells were recovered on day 3, and the Renilla Luciferase activity was determined. […]

Series [3] deals with leukemia. As to conditions: clinical use for leukemia; cited from earlier work.

On to `Nc1nc(Cl)nc2c1ncn2[C@@H]1O[C@H](CO)[C@@H](O)[C@@H]1F` [clofarabine, 2-chloro-9-(2-deoxy-2-fluoro-β-D-arabinofuranosyl)adenine], for which the “anti-HBV activity (intracellular HBV DNA amount)” value in series [1] is “comparable to that of entecavir”. Also, the “concentration at which anti-HBV activity is exhibited” value in series [1] (7 days (FIG. 5)) is on record as “about 20 nM”. Besides, in series [2], the “anti-HCV activity (Renilla luciferase activity)” value is listed as “comparable to that of sofosbuvir”. In addition, the “effective blood level for leukemia” value in series [3] is “about 2 μM”.

Turning to `Nc1nc(Cl)nc2c1ncn2[C@H]1C[C@H](O)[C@@H](CO)O1` [cladribine, 2-chloro-9-(2-deoxy-β-D-arabinofuranosyl)adenine], the “anti-HBV activity (intracellular HBV DNA amount)” value in series [1] is on record as “does not have anti-HBV activity”. Further, in series [2], the “anti-HCV activity (Renilla luciferase activity)” value is “has anti-HCV activity”.
